Assay results: US9572820B2, “Methods of treating autophagy-associated disorders and related pharmaceutical compositions, diagnostics, screening techniques and kits” (priority 2011, dated 2017)
Non-standard residues stand in square brackets, D forms with d. Residues, ends and D or L forms follow the SMILES beside them. Nle = CCCC[C@H](N)C(=O)O

B1: IL-1α: cytokine used at 20 ng/ml to promote Th17 differentiation (protein, UniProt P01583 113-271, looked up)
Interleukin-1 alpha: SAPFSFLSNVKYNFMRIIKYEFILNDALNQSIIRANDQYLTAAALHNLDEAVKFDMGAYKSSKDDAKITVILRISKTQLYVTAQDEDQPVLLKEMPEIPKTITGSETNLLFFWETHGTKNYFTSVAHPNLFIATKQDYWVCLAGGPPSITDFQILENQA

test system: LC3-GFP/RFP HeLa cells; assay: High-content imaging screen of LC3-GFP/RFP puncta (Cellomics ArrayScan); type: cell-based; details: LC3-GFP/RFP puncta per cell, 4 hours incubation; hit = 3 standard deviations above or below mean of negative control wells
Experimental: FIG. 1X6. Use of Cellomics ArrayScan to detect induction of authophagy. […] Wells were scanned for number, area, or intensity of GFP+ or RFP+ puncta per cell using a Cellomics ArrayScan. Negative control (DMF-treated) wells were also measured. Each dot represents the data from a single well.
FIG. 2X6. Chemical library screen for modulation of autophagy. LC3-RFP/GFP HeLa cells were incubated with compounds from the chemical library for 4 hours, then fixed in 0.1% PFA. Wells were scanned using a Cellomics ArrayScan. […] Each dot represents the data from a single well.
FIG. 4X6. […] Wells were scanned using a Cellomics ArrayScan. […] Each dot represents the data from four separate wells, and error bars are standard deviation.
LC3 is a widely-used marker for autophagic vacuoles. HeLa cells stably transduced with LC3-GFP/RFP tandem construct generate fluorescent autophagic puncta, which are either green/yellow (early autophagosomes) or red (late autophagosomes fused with lysosomes, which degrades the GFP). By quantitating the number or total area of fluorescent puncta per cell, we can detect alterations in autophagic flux and regulation. […]
Using the above system, we performed two separate screens on a chemical library. This library contains 1,200 FDA-approved compounds, and represents wide functional and chemical diversity. This library spans four 384-well plates, with 64 wells on each plate with DMSO only as negative controls. […] A hit was defined as 3 standard deviations above or below the mean of the negative control wells on a given plate.

| Molecule | modulation of autophagy (agonist/inducer or antagonist/inhibitor) |
| --- | --- |
| COCCCC/C(=N\OCCN)c1ccc(C(F)(F)F)cc1 [fluvoxamine] | agonists or inducers of autophagy |
| CNCCC=C1c2ccccc2CCc2ccccc21 [nortriptyline] | agonists or inducers of autophagy |
| CN1CCCC(CC2c3ccccc3Sc3ccccc32)C1 (stereo not drawn) [metixene] | agonists or inducers of autophagy |
| CC(=O)[O-].[Hg+][c]1ccccc1 [phenylmercuric acetate] | antagonists or inhibitors of autophagy |
| CC12CC3CC(C)(C1)CC(N)(C3)C2 [memantine] | agonists or inducers of autophagy |
| CNCCC=C1c2ccccc2C=Cc2ccccc21 [norcyclobenzaprine] | agonists or inducers of autophagy |
| CCN(CC)CCOc1ccc(C(=C(Cl)c2ccccc2)c2ccccc2)cc1.O=C(O)CC(O)(CC(=O)O)C(=O)O [clomiphene citrate (Z,E)] | agonists or inducers of autophagy |
| Oc1c(Cl)cc(Cl)c(Cl)c1Cc1c(O)c(Cl)cc(Cl)c1Cl [hexachlorophene] | agonists or inducers of autophagy |
| O=C(Nc1ccccc1)OCC(CN1CCCCC1)OC(=O)Nc1ccccc1 (stereo not drawn) [diperodon] | agonists or inducers of autophagy |
| CCCCc1cc2ccccc2c(OCCN(C)C)n1 [dimethisoquin] | agonists or inducers of autophagy |
| CC(C)COCC(CN(Cc1ccccc1)c1ccccc1)N1CCCC1 (stereo not drawn) [bepridil] | agonists or inducers of autophagy |
| CNCC(O)c1ccc(OC(=O)C(C)(C)C)c(OC(=O)C(C)(C)C)c1 (stereo not drawn) [dipivefrin] | agonists or inducers of autophagy |
| N#Cc1c(Cl)c(Cl)c(Cl)c(C#N)c1Cl [tetrachlorisophthalonitrile] | antagonists or inhibitors of autophagy |
| CN(Cc1cc(Br)cc(Br)c1N)C1CCCCC1 [bromhexine] | agonists or inducers of autophagy |
| COC(=O)Nc1nc2cc(C(=O)c3ccc(F)cc3)ccc2[nH]1 [flubendazole] | agonists or inducers of autophagy |
| CC[N+](C)(CC)CCC[n+]1c(-c2ccccc2)c2cc(N)ccc2c2ccc(N)cc21.[I-].[I-] [propidium iodide] | agonists or inducers of autophagy |

same assay, conditions: from pp242 dose response

| Molecule | suboptimal dose that did not induce autophagy |
| --- | --- |
| CC(C)n1nc(-c2cc3cc(O)ccc3[nH]2)c2c(N)ncnc21 [pp242] | ~0.06 µM |

test system: LC3-GFP/RFP HeLa cells; assay: Chemical library screen in the presence of a suboptimal dose of pp242; type: cell-based; details: suboptimal pp242 (~0.06 uM) plus library compound

| Molecule | modulation of autophagy in combination with mTOR inhibitor (suboptimal pp242) |
| --- | --- |
| CCCCC(CC)CN1CN(CC(CC)CCCC)CC(C)(N)C1 (stereo not drawn) [hexetidine] | effective as autophagy modulators in combination |
| C[C@H]1O[C@@H](O[C@H]2[C@@H](O)C[C@H](O[C@H]3[C@@H](O)C[C@H](O[C@H]4CC[C@@]5(C)[C@H](CC[C@@H]6[C@@H]5C[C@@H](O)[C@]5(C)[C@@H](C7=CC(=O)OC7)CC[C@]65O)C4)O[C@@H]3C)O[C@@H]2C)C[C@H](O)[C@@H]1O [digoxin] | effective as autophagy modulators in combination |
| Cc1cccc(C)c1N=C1NCCCS1 [xylazine] | effective as autophagy modulators in combination |
| O=C1NCCN1CCN1CCC(c2cn(-c3ccc(F)cc3)c3ccc(Cl)cc23)CC1 [sertindole] | effective as autophagy modulators in combination |

test system: IL-1α; assay: IL-1α release (ELISA) from LPS+IFN-γ stimulated BMM; type: cell-based, murine; details: Atg5fl/fl LysM-Cre+ BMM, ALLN 100 μM

| Molecule | excess IL-1α production |
| --- | --- |
| CCCC[C@@H](C=O)NC(=O)[C@H](CC(C)C)NC(=O)[C@H](CC(C)C)NC(C)=O [ALLN] (Ac-Leu-Leu-[Nle]-aldehyde) | completely abrogated |

same assay, conditions: Atg5fl/fl LysM-Cre− BMM, LPS+IFN-γ, 12 h; 50 μg/ml rapamycin, 10 mM 3-MA or 100 nM Bafilomycin A1

| Molecule | IL-1α secreted |
| --- | --- |
| Cn1cnc(N)c2ncnc1-2 [3-methyladenine] | significantly increased |

test system: naïve CD4 T cells; assay: In vitro Th17 polarization of naïve CD4 T cells (intracellular IL-17A, flow cytometry); type: cell-based, mice; details: with TGF-β 5 ng/ml and IL-6 20 ng/ml; IL-1α or IL-1β 20 ng/ml, day 4

| Molecule | intracellular levels of IL-17A |
| --- | --- |
| B1 | elevated |

test system: IL-1β; assay: IL-1β secretion from LPS-pretreated BMMs (ELISA); type: cell-based, murine; details: pp242 in full medium, 1 h
Experimental: FIG. 1X3. induction of autophagy enhances IL-1β secretion. (A) Atg5fl/fl Cre^− and Atg^5fl/fl Cre^+ bone marrow-derived macrophages (BMMs), pretreated overnight with 100 ng/ml LPS, were stimulated for 1 h with the inflammasome agonist nigericin ([…]) with (Starvation; EBSS) or without (Full; full medium) autophagic induction. Cell culture supernatants were assayed for murine IL-1β by ELISA. Data represent mean values±s.d. (nX3); *Po0.05. (B) LPS-pretreated Atg5fl/fl Cre^− and Atg^5fl/fl Cre^+ BMMs were stimulated with […] nigericin for 1 h in OptiMEM and the release of active caspase-1 and IL-1β was determined by immunoblotting. (C) As in (A), assayed for IL-18. Data represent mean values±s.d. (nX3); *Po0.05. (D) LPS-pretreated BMMs were exposed to alum ([…]) for 1 h with or without autophagic induction by starvation. Secreted IL-1β was measured as in (A). Data represent mean values±s.d. (nX3); *Po0.05. (E) LPS-pretreated BMMs were exposed to silica ([…]) for 1 h with or without autophagic induction by starvation. Secreted IL-1β was measured as in (A). Data represent mean values±s.d. (nX3); *Po0.05. (F) BMMs were transfected with scramble (Scr) control siRNA or siRNAs against ASC and NLRP3. After 48 h following transfection, cells were treated overnight with LPS and subjected to nigericin ([…]) and starvation for 1 h. Data represent mean values±s.d. (nX3); *Po0.05. (G) Immunoblot analysis of ASC and NLRP3 knockdowns. (H) BMMs were transfected with scramble
FIG. 2X3 Autophagic pathway progression promotes secretion of inflammasome substrates. (A, B) LPS-pretreated BMMs were treated with […] nigericin (Nig) and 100 nM bafilomycin A1 (Baf) with (Starvation) or without (Full) autophagic induction for 1 h and secreted IL-1β (A) and IL-18 (B) were measured. Data represent mean values+s.d. (nX3); *Po0.05. (C) LPS-pretreated BMMs were treated with […] of silica and 100 nM bafilomycin A1 (Baf) with (Starvation) or without (Full) autophagic induction for 1 h and secreted IL-1β were measured. Data represent mean values±s.d. (nX3); *Po0.05. (D) Colocalization of cathepsin B with the basal autophagic machinery factor LC3 and IL-1b. Fluorescence; LC3 (green, Alexa488), IL-1β (red, Alexa568), and cathepsin B (blue, Alexa633). BMMs from GFP-LC3 knockin mice were treated with LPS and then analysed for immunofluorescence. (E) Colocalization line tracing analysis from images in (D). (F) LPS-pretreated BMMs were treated with […] nigericin and cathepsin B inhibitor CA-074 Me […] , with (Starvation) or without (Full) autophagic induction, for 1 h and secreted IL-1β was measured. […] (G) LPS-pretreated Atg^5fl/fl Cr^+ and Atg^5fl/fl Cre^− BMMs were stimulated with […] nigericin for 1 h in OptiMEM and release of cathepsin B was determined by immunoblotting. […]

| Molecule | secretion of IL-1β |
| --- | --- |
| CC(C)n1nc(-c2cc3cc(O)ccc3[nH]2)c2c(N)ncnc21 [pp242] | increased secretion of IL-1β |

same assay, conditions: starvation, nigericin, 1 h

| Molecule | IL-1β secretion |
| --- | --- |
| CCCNC(=O)[C@H]1O[C@@H]1C(=O)N[C@H](C(=O)N1CCC[C@H]1C(=O)OC)[C@@H](C)CC [CA-074 Me] | strongly inhibited IL-1β secretion |

test system: pro-IL-1β; assay: Expression of pro-IL-1β in BMMs; type: cell-based, murine; details: cells treated with bafilomycin A1 or CA-074 Me
Experimental: To induce pro-IL-1β expression, cells were pretreated overnight with 100 ng/ml LPS (Sigma). Inflammasome was induced with […] nigericin (Sigma) for 1 h or with […] Alum (Thermoscientific) for 1 h or with […] silica crystals (MIN-U-SIL-15, US Silica) for 1 h or with […] Amyloid-b peptide (Ab; American Peptide Company) fibrils prepared as described (Moore et al, 2002). […] Starvation and other treatments (except for macrophage priming with LPS done in advance) were carried out concurrently (i.e., initiated at the same time).
For all conditions, cell-free supernatants were assayed by immunoblotting after TCA precipitation for mouse IL-1β p17 (R&D), caspase-1 p10 (Santa Cruz Biotechnology), HMGB1 (Abcam) and Cathepsin B (R&D) or by ELISA for mouse IL-1β (R&D), IL-18 (MBL), and HMGB1 (IBL). Immunofluorescence confocal microscopy was carried out using a Zeiss LSM 510 Meta microscope (laser wavelengths 488, 543, and 633 nm). Antibodies against endogenous proteins IL-1β (Abcam), Sec6 (Shu C Hsu, Rutgers University, NJ, USA), Cathepsin B (R&D), Rab8a (Abcam), GORASP1 (Novus), GORASP2 (ProteinTech Group), GM130 (BD), LC3 (MBL) and GFP (Abcam; for BMMs from GFP-LC3 knock-in transgenic mice) were used for indirect immunofluorescence analysis. […]

| Molecule | expression of pro-IL-1β |
| --- | --- |
| CCCNC(=O)[C@H]1O[C@@H]1C(=O)N[C@H](C(=O)N1CCC[C@H]1C(=O)OC)[C@@H](C)CC [CA-074 Me] | No differences |
